Assay results taken from ChEMBL document CHEMBL3638875, “Pyrazol-4-yl-heterocyclyl-carboxamide compounds and methods of use” (2014).

What was measured:
[1] = molecular target: Serine/threonine-protein kinase pim-3 (Homo sapiens, UniProt Q86V86); experiment: (§1) Binding Assay: PIM-1, -2, and -3 enzymes were generated as fusion proteins expressed in bacteria and purified by IMAC column chromatography (Sun, X., Chiu, J. F., and He, Q. Y. (2005) Expert Rev. Proteomics, 2:649-657). A fluorescent-labeled Pim-specific peptide substrate, was custom synthesized by American Peptide Company (Sunnyvale, Calif.). Reaction Buffer contained 10 mM HEPES, pH 7.2, 10 mM MgCl2, 0.01% Tween 20, 2 mM DTT. Termination Buffer contained 190 mM HEPES, pH 7.2, 0.015% Brij-35, 0.2% Coating Reagent 3 (Caliper Life Sciences, Hopkinton, Mass.), 20 mM EDTA. Separation Buffer contained 100 mM HEPES, pH 7.2, 0.015% Brij-35, 0.1% Coating Reagent 3, 1:200 Coating Reagent 8 (Caliper Life Sciences, Hopkinton, Mass.), 10 mM EDTA and 5% DMSO.
[2] = molecular target: Serine/threonine-protein kinase pim-2 (Homo sapiens, UniProt Q9P1W9); experiment: as §1, with “A” for “Binding Assay: PIM-1, -2, and -3 enzymes were generated as fusion proteins expressed in bacteria and purified by IMAC column chromatography (Sun, X., Chiu, J. F., and He, Q. Y. (2005) Expert Rev. Proteomics, 2:649-657). A”
Sequence of Serine/threonine-protein kinase pim-2 (Q9P1W9 whole entry, the tested form may be a part): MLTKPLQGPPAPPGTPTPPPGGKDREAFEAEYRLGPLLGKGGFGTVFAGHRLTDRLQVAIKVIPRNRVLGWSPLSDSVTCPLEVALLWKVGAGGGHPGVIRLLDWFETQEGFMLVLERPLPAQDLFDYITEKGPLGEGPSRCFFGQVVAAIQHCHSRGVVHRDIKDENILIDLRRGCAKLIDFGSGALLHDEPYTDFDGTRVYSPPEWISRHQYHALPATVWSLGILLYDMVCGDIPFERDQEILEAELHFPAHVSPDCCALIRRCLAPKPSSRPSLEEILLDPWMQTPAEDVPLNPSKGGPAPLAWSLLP

Ki [1]: 68.1 nM
Ki [2]: 154 nM
Structure (SMILES): Cn1ncc(NC(=O)c2nc(Br)cnc2N)c1N1CCC[C@H](N)C1
